Structures can show the parent of a compound that is named as a salt.
Key:
HeLa cells = assay: Antiproliferative activity in parental HeLa cells; assay type: cell-based; conditions: Homo sapiens, read-out: IC50 ± SD HeLa
MDA-MB-435 cancer cells = conditions: earlier report; cited from earlier work
SK-OV-3 cells = assay: Antiproliferative activity in parental SK-OV-3 cells; assay type: cell-based; conditions: Homo sapiens, SK-OV-3, read-out: IC50 ± SD SK-OV-3
[1] = test system: cellular microtubules in A-10 cells; assay: Microtubule depolymerizing effects, cell-based phenotypic screen; conditions: for microtubule depolymerizing activity: at 10000 nM, A-10 cells
U251 cancer cells = assay: U251 cytotoxicity assay; assay type: cell-based, human; conditions: versus compound 5
NCI 60 cancer cell lines = assay: NCI 60 cell line panel; assay type: cell-based; conditions: values in Table S2, not available
[2] = test system: U251 human glioma cells implanted into nude mice; assay: U251 flank xenograft study; assay type: in vivo; conditions: 17.5 mg/kg twice week
[3] = Maximal tolerated dose, dose escalation study; assay type: in vivo; conditions: nude mice, escalation until >5% weight loss

Compound: COc1ccc(/C=C\c2cc(OC)c(OC)c(OC)c2)cc1O [CA-4, Combretastatin A-4]
- IC50 (HeLa cells): 4.7 ± 0.2 nM

Compound: COc1ccc(Nc2nc(C)nc3c2CC(C)C3)cc1 (stereo not drawn) [Compound 2]
- antiproliferative and microtubule depolymerizing activity (MDA-MB-435 cancer cells): almost inactive

Compound: COc1ccc(N(C)c2nc(C)nc3c2CCC3)cc1 [Compound 3, 2,4-dimethyl-4-(4′-methoxy)phenyl cyclopenta[d]pyrimidine]
- IC50 (HeLa cells): 12 ± 1.2 nM
- IC50 (SK-OV-3 cells): 11.3 ± 0.2 nM

Compound: COc1ccc2c(N(C)c3nc(C)nc4c3CCC4)cccc2c1 [Compound 4, N-(6’-methoxynaphthyl-1’)-N,2-dimethyl-cyclopenta[d]pyrimidin-4-amine hydrochloric acid salt]
- microtubule depolymerizing activity [1]: no microtubule depolymerizing activity
- fold less potent/active than 5 in the U251 cytotoxicity assay (U251 cancer cells): 5 fold

Compound: COc1cccc2cc(N(C)c3nc(C)nc4c3CCC4)ccc12 [Compound 5, N-(5’-methoxynaphthyl-2’)-N,2-dimethyl-cyclopenta[d]pyrimidin-4-amine hydrochloric acid salt]
- fold more potent than CA-4 in microtubule depolymerizing activity ([1]; versus CA-4): about 3 fold
- GI50s in the NCI 60 cell line panel (NCI 60 cancer cell lines): potent GI50s against most of the NCI 60 cancer cell lines
- toxicity as measured by animal weight ([2]; U251 xenograft mice): without significant toxicity
- tumor growth (tumor volume) in U251 xenograft ([2]; started 7 days after implantation): inhibited tumor growth as compared with the carrier or temozolomide
- Maximal tolerated dose (MTD) [3]: 17.5 mg/kg/2x wk

Compound: COc1ccc(N(C)c2nc(C)nc3c2CCC3)c2ccccc12 [Compound 6, N-(4’-methoxynaphthyl-1’)-N,2-dimethyl-cyclopenta[d]pyrimidin-4-amine]
- fold less potent than 5 for microtubule depolymerizing activity ([1]; versus compound 5): more than 100 fold
- fold less potent/active than 5 in the U251 cytotoxicity assay (U251 cancer cells): 2 fold

Compound: COc1cccc2c(N(C)c3nc(C)nc4c3CCC4)cccc12 [Compound 7, N-(5’-methoxynaphthyl-1’)-N,2-dimethyl-cyclopenta[d]pyrimidin-4-amine hydrochloric acid salt]
- fold less potent/active than 5 in the U251 cytotoxicity assay (U251 cancer cells): 2 fold

Compound: COc1ccc2c(N(C)c3ncnc4c3CCC4)cccc2c1 [Compound 8, N-(6’-methoxynaphthyl-1’)-N-methyl-cyclopenta[d]pyrimidin-4-amine]
- microtubule depolymerizing activity [1]: no microtubule depolymerizing activity
- fold less potent/active than 5 in the U251 cytotoxicity assay (U251 cancer cells): 7 fold

Compound: COc1cccc2cc(N(C)c3ncnc4c3CCC4)ccc12 [Compound 9, N-(5’-methoxynaphthyl-2’)-N-methyl-cyclopenta[d]pyrimidin-4-amine hydrochloric salt]
- fold less potent/active than 5 in the U251 cytotoxicity assay (U251 cancer cells): 4 fold

Compound: Cn1nnc2c(C(N)=O)ncn2c1=O [temozolomide, reference compound]
- Maximal tolerated dose (MTD) [3]: 50 mg/kg/wk
